Entries after “also recorded” stand apart in the source; their conditions may differ.
How the values were obtained:
[1] = test system: test subjects with autism spectrum condition; assay: L-Carnosine in test subjects with autism spectrum condition (language, CARS); format: in vivo, human
[2] = test system: Interleukin-1β; assay: Serum Interleukin-1β levels with lenalidomide outside of the study; format: in vivo, human; details: 2.5 to 10 mg; 2 subjects; 12 to 24 weeks of therapy
[3] = test system: TNF-α; assay: TNF-α levels in CSF and serum of autism spectrum patients treated with lenalinomide; format: in vivo, human
[4] = test system: autism spectrum subjects; assay: Clinical improvement with lenalidomide outside of the study; format: in vivo, human; details: 2.5 to 10 mg; four subjects outside of the study
[5] = test system: patients diagnosed with an autism spectrum condition; assay: Clinical language, social skills, CARS and EEG outcome in the lenalinomide study; format: in vivo, human
[6] = test system: patients with autistic regression and abnormal EEG; assay: Thalidomide in patients with autistic regression and abnormal EEG
[7] = test system: patient with co-morbid autism condition and inflammatory colitis; assay: Co-morbid autism condition in a single patient treated with infliximab; format: in vivo, human; details: in just days of treatment
Source text: This patient regressed and became autistic […] with the onset of their inflammatory colitis condition becoming clinically obvious at a later date.

[8] = 2.5 mg per day, in 6 to 12 weeks, four patients with TNF-α CSF elevation over serum levels
[9] = after 4 to 12 weeks off the medication
[10] = 25 to 50 mg per day for 2 to 4 months, six patients

## NCCC(=O)N[C@@H](Cc1cnc[nH]1)C(=O)O [L-Carnosine]
[1]; 800 mg per day, after 6 and 12 weeks of treatment, compared to placebo
  language function, receptive one word vocabulary testing scores: improvement
[1]; 800 to 1000 mg, over 8 weeks
  CARS scores: CARS scores improvement
  language: language improvement

## Nc1cccc2c1CN(C1CCC(=O)NC1=O)C2=O (stereo not shown) [Lenalinomide]
[2]
  Interleukin-1β levels in serum: lower
[3]; [8]
  levels of TNF-α in CSF: lowered levels
  levels of TNF-α in serum: lowered levels
[3]; [9]
  TNF-α levels in serum after withdrawal of the medication: increased
[3]; when TNF-α is elevated in an inflammatory response
  CSF and serum ratios of TNF-α and other inflammatory cytokines: lowering
[4]
  clinical improvement: great clinical improvement
[5]; 2.5 mg per day
  EEG in patients with abnormal EEG: showed improvement; also recorded: may have improved
[5]; 2.5 mg per day (4/6 of completed study)
  patients with elevated TNF-α levels in CSF and serum improved over baseline clinically: four out of four
[5]; 2.5 mg per day, FIG. 2a
  CGI rating scale for language expression: Improvement
[5]; 2.5 mg per day, FIG. 2b
  CGI rating scale for receptive language: Improvement
[5]; 2.5 mg per day, FIG. 3
  CGI rating scale for social skills: Improvement
[5]; 2.5 mg per day, FIG. 4a
  neuropsychological testing, receptive one-word test: Improvement
[5]; 2.5 mg per day, FIG. 4b
  neuropsychological testing, expressive one-word test: Improvement
[5]; 2.5 mg per day, four patients
  Childhood Autism Rating Scale Scores (CARS): improved
  language skills: improved
  social skills: improved
[5]; [9]
  skills after withdrawal of the medication: regressed
[5]; re-introduced at 2.5 to 5 mg per day, three patients
  clinical state when medication was re-introduced: improved

## O=C1CCC(N2C(=O)c3ccccc3C2=O)C(=O)N1 (stereo not shown) [Thalidomide]
[6]; [10]
  EEG: improved
  clinical global improvement: clinical global improvement occurred
[6]; patients who previously showed immune partial response to oral or injectable corticosteroids
  clinical state of patients with autistic regression and abnormal EEG: improvement

## Infliximab
[7]
  co-morbid autism condition: improvement

Reference: US9265755B2, “Stem cell administration to reduce TNF-α level in CSF of an autism spectrum disorder or pervasive development disorder patient” (priority 2009, dated 2016)
